The subject of this test is VSV. The class given is in vivo, mouse.

1 molecule from patent US6805870B1 (priority 1994, dated 2004) can be followed below.

Where two headings read alike, the source gives them in different places.

Regarding `c1ccc([C@H]2CN3CCSC3=N2)cc1` [levamisole], the “efficacy index (mean of at least 2 tests)” value reads like this: (mouse, in vivo) 0; (preparation dilution 1:4) “toxic”; (preparation dilution 1:8) 0; (preparation dilution 1:32) 0; (preparation dilution 1:64) 0; (preparation dilution 1:128) 0.
